One block for each compound: values may come before it.
Legend:
Format in all cases: physicochemical
[1] = Monatin stabilization / degradation observations in beverage, conditions not stated; conditions: for monatin stabilization ability (rank order): rank by number of hydroxyl groups on the aryl ring
[2] = Heat treatment of bottled monatin beverage in thermostatically controlled oven, one week at 110° F.
Description: (§1) The following illustrates specific embodiments of the present invention (i.e., embodiments using EMIQ) but are not intended to limit it. All percentages are by weight unless otherwise stated. Heat treatment of bottled beverage was conducted in a thermostatically controlled oven. UV exposure of bottled beverage was conducted within an Atlas CI 5000 with Xenon arc lamp in a thermostatically controlled oven.
Additional analyses of the lemon/lime (“L/L”) flavored beverages above were conducted to determine formation of lactone (reversible) or lactam (irreversible) from monatin. The accumulation of the two degradation products would reduce sweetness impact over time and reduce consumer acceptance of a product containing a beverage comprising monatin. […] The amounts of ascorbic acid (where indicated) was 333 ppm, and the amount of EMIQ (where indicated) was 7.50 ppm (50 uL of 15% EMIQ as San-Melin AO-3000=7.5 ppm).

[3] = UV exposure of bottled monatin beverage, Atlas CI 5000 with Xenon arc lamp, 24 hours at 86° F.
Description: as §1
Additional analyses of the lemon/lime (“L/L”) flavored beverages above were conducted to determine formation of lactone (reversible) or lactam (irreversible) from monatin.
UV exposure of bottled beverage was conducted within an Atlas CI 5000 with Xenon arc lamp in a thermostatically controlled oven.

Structure (SMILES): O=C(O)/C=C/c1ccc(O)c(O)c1 [caffeic acid]
monatin stabilization ability (rank order) [1]: caffeic acid (2 hydroxyl groups)>ferulic acid>coumaric acid>cinnamic acid (no hydroxyl groups)

Structure (SMILES): COc1cc(/C=C/C(=O)O)ccc1O [ferulic acid]
monatin stabilization ability (rank order) [1]: caffeic acid (2 hydroxyl groups)>ferulic acid>coumaric acid>cinnamic acid (no hydroxyl groups)

Structure (SMILES): O=C(O)/C=C/c1ccc(O)cc1 [coumaric acid]
monatin stabilization ability (rank order) [1]: caffeic acid (2 hydroxyl groups)>ferulic acid>coumaric acid>cinnamic acid (no hydroxyl groups)

Structure (SMILES): O=C(O)C=Cc1ccccc1 [cinnamic acid]
monatin stabilization ability (rank order) [1]: caffeic acid (2 hydroxyl groups)>ferulic acid>coumaric acid>cinnamic acid (no hydroxyl groups)

Color Hue Change, 1 week @ 110° F. ([2]; Lemon/Lime Carbonated Soft Drink, 265 ppm sodium benzoate, 333 ppm ascorbic acid where indicated, 30 ppm CaNa2EDTA, 50 ppm monatin): No | formation of lactam from monatin ([2]; low pH matrix, heat stress conditions): not ascorbic acid | Lactam formation ([3]; Cola CSD, 24 h UV exposure, 30 ppm myricitrin, 100 ppm EMIQ, 300 ppm ascorbic acid or none): 2.9 ppm | Monatin + lactone ([3]; L/L CSD, 24 h UV exposure, 30 ppm myricitrin, 100 ppm EMIQ, 300 ppm ascorbic acid or none): 37.7 ppm | Color Hue Change, UV 24 hours @ 86° F. ([3]; Lemon/Lime Carbonated Soft Drink, 265 ppm sodium benzoate, 333 ppm ascorbic acid where indicated, 30 ppm CaNa2EDTA, 50 ppm monatin, Yes* = pink to rust color develops): No
Structure (SMILES): O=C1O[C@H]([C@@H](O)CO)C(O)=C1O [ascorbic acid]
protection against pink coloration and off-flavor development ([3]; 24 h of UV exposure): protects against pink coloration and off-flavor development | formation of lactam and color hue change with ascorbic acid ([1]; non-colored carbonated soft drink): results in the formation of lactam, a degradation product of monatin, and an undesirable color hue change
